The values below come from ChEMBL document CHEMBL2331358, “Novel agmatine dipeptide inhibitors against the West Nile virus NS2B/NS3 protease: a P3 and N-cap optimization study” (Eur J Med Chem, 2013).

This test is described as follows: Inhibition of West Nile virus NS2B-NS3 serine protease using Pyr-RTKR-AMC as substrate incubated for 1 hr prior to substrate addition measured every 45 secs for 1 hr by fluorescence assay.
A word on the IC50: it is the midpoint of a concentration-inhibition curve. A low value points to greater potency. For the compound `CC(=O)N[C@@H](CCCCN)C(=O)N[C@@H](CCCCN)C(=O)NCCCCNC(=N)N`, the IC50 worked out at 18.2 µM.

`Cc1ccccc1CC(=O)N[C@@H](CCCCN)C(=O)N[C@@H](CCCCN)C(=O)NCCCCNC(=N)N` returned an IC50 of 6.8 µM. Next, `Cc1cccc(CC(=O)N[C@@H](CCCCN)C(=O)N[C@@H](CCCCN)C(=O)NCCCCNC(=N)N)c1`: 9.2 µM; `N=C(N)NCCCCNC(=O)[C@H](CCCCN)NC(=O)[C@H](CC(N)=O)NCC(=O)c1ccc(-c2ccccc2)cc1`: over 100 µM. Next, `N=C(N)NCCCCNC(=O)[C@H](CCCCN)NC(=O)CNCC(=O)c1ccc(-c2ccccc2)cc1`: over 100 µM. Next, `CC(C)CC(=O)N[C@@H](CCCCN)C(=O)N[C@@H](CCCCN)C(=O)NCCCCNC(=N)N`: 19.2 µM; `N=C(N)NCCCCNC(=O)[C@H](CCCCN)NC(=O)[C@H](CO)NCC(=O)c1ccc(-c2ccccc2)cc1`: over 100 µM. The compound `N=C(N)NCCCCNC(=O)[C@H](CCCCN)NC(=O)[C@H](CCCCN)NC(=O)c1ccc2ccccc2c1` displayed an IC50 of 32.5 µM.

Regarding `N=C(N)NCCCCNC(=O)[C@H](CCCCN)NC(=O)[C@H](Cc1cnc[nH]1)NCC(=O)c1ccc(-c2ccccc2)cc1`, the IC50 was over 100 µM. In turn, `N=C(N)NCCCCNC(=O)[C@H](CCCCN)NC(=O)[C@H](CCCCN)NC(=O)c1ccccc1` returned a concentration for half-maximal inhibition (IC50) of 38.6 µM. In turn, `N=C(N)NCCCCNC(=O)[C@H](CCCCN)NC(=O)[C@@H]1CCCN1CC(=O)c1ccc(-c2ccccc2)cc1` returned an IC50 of over 100 µM. Under `N=C(N)NCCCCNC(=O)[C@H](CCCCN)NC(=O)[C@H](CCCCN)NC(=O)Cc1ccc(Cl)cc1` stands 4.8 µM. The compound `N=C(N)NCCCCNC(=O)[C@H](CCCCN)NC(=O)[C@H](CCCCN)NC(=O)Cc1cccc(-c2ccccc2)c1` came in with an IC50 of 9.9 µM.

Compound `N=C(N)NCCCCNC(=O)[C@H](CCCCN)NC(=O)[C@H](CCC(=O)O)NCC(=O)c1ccc(-c2ccccc2)cc1` yielded an IC50 of over 100 µM. Next, `CC(C)[C@H](NCC(=O)c1ccc(-c2ccccc2)cc1)C(=O)N[C@@H](CCCCN)C(=O)NCCCCNC(=N)N`: over 100 µM; `N=C(N)NCCCCNC(=O)[C@H](CCCCN)NC(=O)[C@H](Cc1ccccc1)NCC(=O)c1ccc(-c2ccccc2)cc1`: 44.5 µM; `CC(C)C(=O)N[C@@H](CCCCN)C(=O)N[C@@H](CCCCN)C(=O)NCCCCNC(=N)N`: 23.8 µM. Under `N=C(N)NCCCCNC(=O)[C@H](CCCCN)NC(=O)[C@H](CCCNC(=N)N)NCC(=O)c1ccc(-c2ccccc2)cc1` stands 19.1 µM; under `C[C@H](NCC(=O)c1ccc(-c2ccccc2)cc1)C(=O)N[C@@H](CCCCN)C(=O)NCCCCNC(=N)N`, 53.7 µM. Under `N=C(N)NCCCCNC(=O)[C@H](CCCCN)NC(=O)[C@@H](CCCCN)NCC(=O)c1ccc(-c2ccccc2)cc1` stands over 100 µM; under `N=C(N)NCCCCNC(=O)[C@H](CCCCN)NC(=O)[C@H](CCCCN)NC(=O)CCCc1ccccc1`, 11.2 µM; under `CC(C)(C)C(=O)N[C@@H](CCCCN)C(=O)N[C@@H](CCCCN)C(=O)NCCCCNC(=N)N`, 27.1 µM. With `N=C(N)NCCCCNC(=O)[C@H](CCCCN)NC(=O)[C@H](CCCCN)NC(=O)Cc1ccccc1`, it took 8.5 µM to reach half-maximal inhibition (IC50). For the compound `CCC(=O)N[C@@H](CCCCN)C(=O)N[C@@H](CCCCN)C(=O)NCCCCNC(=N)N`, the IC50 was found to be 19.1 µM. The compound `CCCC[C@H](NCC(=O)c1ccc(-c2ccccc2)cc1)C(=O)N[C@@H](CCCCN)C(=O)NCCCCNC(=N)N` registered an IC50 of 47.9 µM. Next, `N=C(N)NCCCCNC(=O)[C@H](CCCCN)NC(=O)[C@H](Cc1ccc(O)cc1)NCC(=O)c1ccc(-c2ccccc2)cc1`: 33.5 µM.

`CCCC(=O)N[C@@H](CCCCN)C(=O)N[C@@H](CCCCN)C(=O)NCCCCNC(=N)N`: the IC50 amounted to 18.5 µM.

With `N=C(N)NCCCCNC(=O)[C@H](CCCCN)NC(=O)[C@H](CCC(N)=O)NCC(=O)c1ccc(-c2ccccc2)cc1`, the 50% inhibitory concentration (IC50) was over 100 µM. Next, `N=C(N)NCCCCNC(=O)[C@H](CCCCN)NC(=O)[C@H](CC(=O)O)NCC(=O)c1ccc(-c2ccccc2)cc1`: over 100 µM; `N=C(N)NCCCCNC(=O)[C@H](CCCCN)NC(=O)[C@H](CCCCN)NC(=O)Cc1cccc(Cl)c1`: 9.6 µM; `Cc1ccc(CC(=O)N[C@@H](CCCCN)C(=O)N[C@@H](CCCCN)C(=O)NCCCCNC(=N)N)cc1`: 6.9 µM. Next, `N=C(N)NCCCCNC(=O)[C@H](CCCCN)NC(=O)[C@H](CCCCN)NC(=O)CCc1ccccc1`: 42.2 µM; `CC(C)C[C@H](NCC(=O)c1ccc(-c2ccccc2)cc1)C(=O)N[C@@H](CCCCN)C(=O)NCCCCNC(=N)N`: over 100 µM. Next, `N=C(N)NCCCCNC(=O)[C@H](CCCCN)NC(=O)[C@@H](N)CCCCN`: 38.2 µM; `CC(=O)N[C@@H](CCCCN)C(=O)NCCCCNC(=N)N`: over 100 µM. Turning to `N=C(N)NCCCCNC(=O)[C@H](CCCCN)NC(=O)[C@H](CCCCN)NCC(=O)c1ccc(-c2ccccc2)cc1`, half-maximal inhibition (IC50) was put at 4.7 µM.

In the case of `N=C(N)NCCCCNC(=O)[C@H](CCCCN)NC(=O)[C@H](CCCCN)NC(=O)Cc1ccccc1Cl`, it took 2.6 µM to reach half-maximal inhibition (IC50). Next, `N=C(N)NCCCCNC(=O)[C@H](CCCCN)NC(=O)[C@H](CCCCN)NC(=O)c1cccc2ccccc12`: 33.3 µM.
